Laboratory results: article PMC8248901 (Journal of clinical haematology, 2021)
Like-named read-outs stand apart in the source and are kept apart here.

Columns and labels:
p38γ = target: T1, p38γ (Homo sapiens, UniProt P53778); test: In vitro kinase assay using ADP-Glo, p38γ; format: biochemical; details: for inhibition of p38γ kinase activity (in words): drugs targeting CDK9, Appendix A Figure 7
T1 construct: human recombinant p38α, β, γ, or δ protein kinases (active full-length) were acquired from SignalChem; purchased SignalChem
T1 sequence (P53778 1-367): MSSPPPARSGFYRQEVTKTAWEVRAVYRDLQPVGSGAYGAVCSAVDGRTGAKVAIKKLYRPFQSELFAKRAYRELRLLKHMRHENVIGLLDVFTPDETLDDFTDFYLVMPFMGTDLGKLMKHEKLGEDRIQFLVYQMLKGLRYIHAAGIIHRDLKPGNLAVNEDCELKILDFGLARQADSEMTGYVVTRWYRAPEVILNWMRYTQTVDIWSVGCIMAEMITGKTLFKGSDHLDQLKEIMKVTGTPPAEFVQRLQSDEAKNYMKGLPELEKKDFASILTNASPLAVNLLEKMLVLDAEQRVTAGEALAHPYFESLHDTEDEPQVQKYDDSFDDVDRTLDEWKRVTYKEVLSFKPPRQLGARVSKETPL
Experimental: (§1) Therefore, we attempted to screen p38γ inhibitors from […] by performing an in vitro kinase assay using ADP-Glo as readout for activated p38 isoforms.
(§2) To identify p38γ inhibitors using in vitro kinase assay, a library of kinase inhibitors was screened. The library consists of 244 compounds on three plates (EMD Cat#539744, #539745 and #539746) that are mostly ATP mimics. […] For biochemical screening, in vitro kinase assays were performed using an ADP-Glo kit (Promega, Madison, WI) according to the manufacture’s protocol. […] Briefly, for in vitro assay experiments, human recombinant p38α, β, γ, or δ protein kinases (active full-length) were acquired from SignalChem, and the assay was performed followed protocols from the company. […] Then, ADP-Glo Reagent was incubated in the mixture at room temperature for 40 min, followed by incubation of Kinase Detection Reagent for another 30 min. IC50 values were determined using CalcuSyn software (Biosoft, Cambridge, United Kingdom).

Hut78 cells = test: Combination treatment of FVP and niclosamide, MTS, CI by CompuSyn; format: cell-based; details: 72 hours
[1] = test system: lymphoma or multiple myeloma; design: method as in NCT00112723; details: flavopiridol, trial terminated (administratively complete); ref NCT00112723; cited from earlier work
[2] = test system: newly diagnosed acute myeloid leukemia; design: method as in NCT00407966; details: alvocidib together with cytarabine and mitoxantrone; ref NCT00407966; cited from earlier work
[3] = test system: newly diagnosed acute myeloid leukemia; design: method as in NCT01349972; details: alvocidib, cytarabine, and mitoxantrone hydrochloride; ref NCT01349972; cited from earlier work
[4] = test system: relapsed or refractory mantle cell lymphoma (MCL) and diffuse large B-cell lymphoma (DLBCL); design: method as in NCT00445341; details: flavopiridol, ref NCT00445341, cited from earlier work
p38α = target: T2, p38α (Homo sapiens, UniProt Q16539); test: In vitro kinase assay using ADP-Glo, p38α; format: biochemical; details: cell-free
T2 construct: human recombinant p38α, β, γ, or δ protein kinases (active full-length) were acquired from SignalChem; purchased SignalChem
T2 sequence (Q16539 whole entry): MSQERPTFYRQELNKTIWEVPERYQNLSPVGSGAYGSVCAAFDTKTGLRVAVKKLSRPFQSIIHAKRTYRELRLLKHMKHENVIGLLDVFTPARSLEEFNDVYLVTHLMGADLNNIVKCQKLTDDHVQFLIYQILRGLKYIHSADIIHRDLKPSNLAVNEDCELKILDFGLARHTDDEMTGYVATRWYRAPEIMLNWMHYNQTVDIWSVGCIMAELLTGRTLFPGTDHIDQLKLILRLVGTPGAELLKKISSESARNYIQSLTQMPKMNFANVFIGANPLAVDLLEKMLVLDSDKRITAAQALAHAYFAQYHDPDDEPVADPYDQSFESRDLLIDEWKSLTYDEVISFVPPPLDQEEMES
Experimental: as §1, §2

CTCL [5] = test: Efficacy in CTCL (IC50s quoted in the discussion); format: cell-based
Hut78 CTCL cells = test: cells; format: cell-based; details: Homo sapiens
Experimental: Cell viability was calculated by diluting cell suspensions 1:1 in 0.4% Trypan Blue solution (Sigma, St. Louis, MO) and counting the number of viable cells using a TC20™ automated cell counter (Bio-Rad, Irvine, CA) which automatically excludes the number of non-viable cells stained with trypan blue per total cells. CellTiterGlo Cell Viability Assay (Promega) method was used as described previously. All data points are an average of triplicate experiments.
CellTiterGlo Cell Viability Assay (Promega) was used to measure viability of Hut78 CTCL cells. […] using an automated BMG PHERAstar plate reader (BMG Labtech, Ortenberg, Germany). IC50 values were determined using CalcuSyn software. All experiments were repeated in three independent experiments and data represented are the average of triplicate experiments.

[6] = test system: advanced stomach or gastro-esophageal junction cancer; design: method as in NCT00991952; details: irinotecan hydrochloride with or without alvocidib; ref NCT00991952; cited from earlier work
[7] = test system: previously treated chronic lymphocytic leukemia or lymphocytic lymphoma; design: method as in NCT00058240; details: ref NCT00058240, cited from earlier work
[8] = test system: refractory metastatic pancreatic cancer; design: method as in NCT00331682; details: docetaxel followed by flavopiridol; ref NCT00331682; cited from earlier work
[9] = test system: relapsed or refractory acute myeloid leukemia; design: method as in NCT00634244; details: combination chemotherapy regimen, not given; ref NCT00634244; cited from earlier work
[10] = test system: newly diagnosed acute myeloid leukemia; design: method as in NCT00795002; details: ref NCT00795002, cited from earlier work
p38δ = target: T3, p38δ (Homo sapiens, UniProt O15264); test: In vitro kinase assay using ADP-Glo, p38δ; format: biochemical; details: cell-free
T3 construct: human recombinant p38α, β, γ, or δ protein kinases (active full-length) were acquired from SignalChem; purchased SignalChem
T3 sequence (O15264 1-365): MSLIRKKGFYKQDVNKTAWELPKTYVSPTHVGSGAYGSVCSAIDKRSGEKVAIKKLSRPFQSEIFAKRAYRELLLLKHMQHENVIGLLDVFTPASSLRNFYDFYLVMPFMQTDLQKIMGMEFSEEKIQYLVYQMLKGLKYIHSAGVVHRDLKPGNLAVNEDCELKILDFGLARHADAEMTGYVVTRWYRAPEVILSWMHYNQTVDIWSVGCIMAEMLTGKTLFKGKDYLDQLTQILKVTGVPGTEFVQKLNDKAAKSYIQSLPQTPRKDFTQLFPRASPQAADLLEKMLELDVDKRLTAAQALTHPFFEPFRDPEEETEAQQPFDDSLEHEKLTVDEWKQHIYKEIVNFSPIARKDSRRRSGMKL
Experimental: as §1, §2

[11] = test system: advanced ovarian epithelial cancer or primary peritoneal cancer; design: method as in NCT00083122; details: cisplatin together with flavopiridol, ref NCT00083122, cited from earlier work
CTCL [12] = test system: CTCL; design: method as in printed at the place; details: authors' previous studies of F7, no ref printed at the place, read-out: IC50, efficacy in CTCL; cited from earlier work
[13] = HuT78, read-out: Cytotoxicity IC50, Hut78 CTCL cells
[14] = arm 1, alvocidib with cytarabine and mitoxantrone
[15] = arm 2, alvocidib with cytarabine and mitoxantrone

In the case of CN1CCC(c2c(O)cc(O)c3c(=O)cc(-c4ccccc4Cl)oc23)C1CO (centres unmarked) [P276-00], the “inhibition of p38γ kinase activity (in words)” value (p38γ) is reported as “inhibit p38γ kinase activity”.

With O=C(Nc1ccc([N+](=O)[O-])cc1Cl)c1cc(Cl)ccc1O [niclosamide] the CI (Hut78 cells; FVP 60.0 nM + Nic 0.2 μM (200 nM)) was 0.6 and the CI (Hut78 cells; FVP 240.0 nM + Nic 0.2 μM (200 nM)) was 0.7.

For CN1CC[C@H](c2c(O)cc(O)c3c(=O)cc(-c4ccccc4Cl)oc23)[C@H](O)C1 [FVP, Flavopiridol], the partial response [1] is listed as 6/43 partial response, the serious adverse events [2] is listed as 19/45 and the complete response [3] is listed as 76/109. The serious adverse events [3] was 53/114, the serious adverse events ([4]; patients affected/total) was 14/28 and the partial response ([4]; patients responding/evaluated) was 2/26. For the same compound, the complete response [4] was “no complete response”, the IC50 (p38α) was 1.34 µM and the IC50 (CTCL [5]) was 0.12 µM. For the same compound, the IC50 (Hut78 CTCL cells; [13]) was 0.094 µM, the IC50 (Hut78 CTCL cells; HuT78, read-out: Cytotoxicity IC50, Hut78 cells, abstract) was less than 0.1 µM and the partial response [6] was 1/13. The serious adverse events [6] was 6/13, the stable disease [6] was 4/13 and the ORR ([7]; flavopiridol) was 21/52. For the same compound, the serious adverse events ([7]; highest dose group) was 1/16, the serious adverse events ([7]; lower dose group) was 11/42 and the median overall survival [8] was 4.2 months. For the same compound, the “median time to disease progression” value [8] was 8 weeks, the serious adverse events [8] was 9/9 and the stable disease [8] was 3/9. The Serious adverse event [9] was 36/36, the complete remission [9] was 10/36 and the Serious adverse event [10, 14] was 8/39. For the same compound, the complete response [10, 14] was 24/37, the Serious adverse event [10, 15] was 8/39 and the complete response [10, 15] was 29/37. The IC50 (p38δ) was 0.45 µM, the complete response ([11]; out of 45 patients) was 1 and the partial responses ([11]; out of 45 patients) was 8. The “Median OS” value [11] was 17.5 months, the “median time to progression” value [11] was 4.3 months and the serious adverse events [11] was 23/45.

In the case of Cc1ccc([N+](=O)[O-])cc1S(=O)(=O)N(C)/N=C/c1cnc2ccc(Br)cn12 [F7], the “inhibition of p38γ kinase activity (in words)” value (p38γ) is listed as “inhibit p38γ kinase activity” and the IC50 (CTCL [12]) is listed as 0.029 to 0.033 µM.

With O=c1c(O)c(-c2cc(O)c(O)c(O)c2)oc2cc(O)cc(O)c12 [Myricetin] the IC50 (p38γ; cell-free, ADP-Glo) was 1.6 µM, the IC50 (Hut78 CTCL cells; [13]) was 19.2 µM and the “targets p38δ isoform (in words)” value (p38δ) was “targets three isoforms except p38δ”.
